{
  "source": "paper PMC10961359",
  "about": "“Targeting hexokinase 2 for oral cancer therapy: structure-based design and validation of lead compounds” (Frontiers in Pharmacology, 2024)",
  "type_in_all_cases": "cell-based",
  "key": {"FaDu oral cancer cells": {"system": "FaDu oral cancer cells", "assay": "MTT antiproliferative assay, FaDu", "details": "Homo sapiens, FaDu; MTT, 72 h treatment; mean ± SEM; read-out: GI50 for FaDu", "procedure": "(§1) FaDu cell line was cultured in RPMI-1640 medium containing L-glutamine (300 mg/L) and sodium bicarbonate (2 g/L), while Cal27, HEK293 and HFF-1 cell lines were cultured in DMEM medium containing glucose (4.5 g/L), L-glutamine (584 mg/L) and sodium bicarbonate (3.7 g/L). For gene expression and qPCR studies, RNA isolation was performed using Trizol (Thermo). The reagents and the primer sequences employed for the qPCR assays have been described previously ([Chakraborty et al., 2022]).\n(§2) The hits derived from the docking study were sourced from either commercial suppliers or pre-existing compounds within our laboratory or were synthesized anew. The FaDu and Cal27 oral cancer cells were treated with the compounds for 72 h at concentrations of 3, 10, 30, and 100 μM. A post-treatment MTT assay was done to evaluate their antiproliferative activity. Table S2 represents the anti-proliferative and enzyme inhibitory activity of the compounds obtained as hits from the structure-based drug design strategy. […] Consequently, 50 μM of all the hit compounds were evaluated for their HK2 enzyme inhibitory activity. 50 μM of compounds were incubated with HK2 protein and the rate of reaction was assessed in kinetic mode (rate of conversion of NAD to NADH). The choice of 50 μM concentration was based primarily on MTT assays and GI50 calculation. The average GI50 values of the hit compounds against less sensitive FaDu cell line was approximately 50 μM. Considering this information, we reasoned that utilizing a concentration equivalent to the average GI50 would allow us to assess the maximum inhibitory effect of the compounds on HK2 enzyme activity. […] The same compounds have been previously reported by our team to have EGFR phosphorylation inhibitory potential and were coded as H2 (compound 14) and H10 (compound 11) ([Chakraborty et al., 2022]). […] Figures 1C,D show the lead compounds H2 and H10 at the active site of HK2 enzyme interacting via H-bonds with the amino acid residues."}, "Cal27 oral cancer cells": {"system": "Cal27 oral cancer cells", "assay": "MTT antiproliferative assay, Cal27", "details": "Homo sapiens, CAL-27; MTT, 72 h treatment; mean ± SEM; read-out: GI50 for Cal27", "procedure": "as §1, §2"}, "FaDu cells": {"system": "FaDu cells", "assay": "2-NBDG glucose uptake assay (flow cytometry), FaDu", "details": "10 μM and 30 μM, 72 h, vs DMSO control", "procedure": "(§3) FaDu and Cal27 cells were treated with test compounds (0.2 million cells per treatment) and were incubated for 1 h with 100 μM of 2-NBDG (Invitrogen, N13195), in glucose free medium, washed with ice-cold PBS, and re-suspended in 500 μL of PBS and maintained on ice to perform flow cytometric analyses within 30 min. The mean fluorescent intensity (MFI) readout reflects the amount of fluorescent glucose analog taken up by the cells, providing insight into their glucose uptake capacity. The percent (%) cell population positive for glucose uptake (shown with a right shift of the histogram peaks) were also plotted for both the cell lines. For MMP analysis, cells were incubated with 200 nM of TMRE (Invitrogen, T669) for 30 min. For each measurement, data was collected for 10,000 events using a BD FACS Aria III (Becton Dickinson, San Jose, CA) instrument.\n(§4) 2-[N-(7-Nitrobenz-2-oxa-1,3-diaxol-4-yl) amino]-2-deoxyglucose (2-NBDG) uptake into cells happens via glucose transporters and post uptake 2-NBDG gets phosphorylated by hexokinases. Since cancer cells represent higher glycolytic activity, the inhibition of HK2 activity in cancer cells is actively reflected in the inhibition of 2-NBDG uptake ([Hung et al., 2022]; [Li et al., 2022]). […] In this assay, the MFI of intracellular 2-NBDG serves as a quantitative measure of cellular glucose uptake. […] This finding is further supported by the increased % population of 2-NBDG positive cells in Cal27 cells compared to FaDu cells (Figure 3)."}, "Cal27 cells [1]": {"system": "Cal27 cells", "assay": "2-NBDG glucose uptake assay (flow cytometry), Cal27", "details": "Cal27, 10 μM and 30 μM, 72 h, vs DMSO control", "procedure": "as §3, §4"}, "Cal27 cells [2]": {"system": "Cal27 cells", "assay": "Mitochondria membrane potential by TMRE uptake, Cal27", "details": "Cal27, 30 μM, 4 h", "procedure": "as §3\n(§5) Mitochondria utilize the oxidizable substrates to produce a membrane potential as the proton gradient ([Sivandzade et al., 2019]). […] To determine the change in MMP post-treatment with HK2 inhibitors, the cells were treated with 200 nM of TMRE (tetramethyl rhodamine ethyl ester, a cell-permeant cationic dye readily sequestered by active mitochondria) and flow cytometric analyses of TMRE uptake was carried out. […]"}, "LC3B in Cal27 cells": {"system": "LC3B in Cal27 cells", "assay": "Immunofluorescence LC3B / MitoTracker Red colocalization (mitophagy)", "details": "Cal27, 4 h", "procedure": "Cal27 cells were treated with respective compounds for 4h, and washed with PBS and fixed with 100% methanol. The non-specific antibody binding was blocked by incubating with 5% goat serum in 0.3% Triton X-100 for 1 h. The diluted primary antibody (LC3B mAb, CST Cat# 3868) and MitoTracker Red (CST, Cat# 9082) were applied and samples were incubated overnight at 4°C followed by addition of fluorescently labelled secondary antibody for 2 h at room temperature and visualized using Leica DMi8 laser scanning confocal microscope using the Leica LAS X software. To analyze the extent of mitophagy in the captured images, the colocalization area of green (LC3B) and red (Mito-Red) portions were quantified using the LAS X software. The LC3B MFI was also quantified and represented in gray values.\nas §5, with “2019]). Loss in mitochondrial membrane potential (MMP) is a direct measurement of mitochondrial stress and may cause the release of apoptotic factors leading to cell death ([Zhang et al., 2017]).” for “2019]).”"}},
  "data": [
    {"compound": "COc1ccc(CNC(=O)c2nc3ccccc3s2)cc1O", "note": "[Compound 14, N-(3-hydroxy-4methoxybenzyl)benzo[d]thiazole-2-carboxamide]", "values": [
      {"measurement": "GI50", "setting": "FaDu oral cancer cells", "value": 63.1, "unit": "µM"},
      {"measurement": "GI50", "setting": "Cal27 oral cancer cells", "value": 21.7, "unit": "µM"},
      {"measurement": "2-NBDG MFI", "setting": "FaDu cells", "value": "significant reduction"},
      {"measurement": "2-NBDG MFI", "setting": "Cal27 cells [1]", "value": "significant reduction"},
      {"measurement": "MMP reduction compared to H10 and CCCP", "setting": "Cal27 cells [2]", "value": "more effective in reducing the MMP"},
      {"measurement": "LC3B expression and co-localization with MitoTracker Red (mitophagy)", "setting": "LC3B in Cal27 cells", "value": "increase in LC3B expression"}
    ]}
  ]
}
